Cell viability data for 1 compound are collected here from patent US20240400549A1, “COMPOUNDS AND THEIR USES FOR TREATING NEURODEGENERATIVE DISEASE” (Academia Sinica, priority 2021, published 2024).

For the assay, the system named is C-TDP-43 expressed Neuro-2a cells. Description: AlamarBlue cell viability in C-TDP-43 expressed Neuro-2a cells. Format: cell-based, mouse. Conditions: 5 μM; eGFP-C-TDP-43 overexpressing Neuro-2a cells; mock 0.43±0.04 vs blank control 1±0.03. On the procedure: Neuro-2a cells were seeded in a 24-well plate at a concentration of 8×10^4 cells/well and incubated overnight. The attached Neuro-2a cells were then transfected with the eGFP-C-TDP-43 plasmid (1.1 μg) using TurboFect™ transfection reagent (Invitrogen) according to manufacturer's recommendations, and treated with or without 5 μM test compound after 2 h transfection. The cell viability indicator, AlamarBlue (Invitrogen), was added after 42 h of incubation, and the mixture was incubated for another 6 h. […] conditional medium was transferred to a 96-well plate, and cell viability was determined by the increased fluorescence intensity (λex=560 nm, λem=590 nm).
In this example, whether the compounds of formula (I) or (II) could relieve C-TDP-43-mediated cytotoxicity was examined.

As to `CN(C)c1ccc(-c2nc3ccc(OCCOCCOCCNc4cccc5c4C(=O)N(C4CCC(=O)NC4=O)C5=O)cc3s2)cc1` (stereo not shown) [I-1b, 4-((2-(2-(2-((2-(4-(dimethylamino)phenyl)benzo[d]thiazol-6-yl)oxy)ethoxy)ethoxy)ethyl)amino)-2-(2,6-dioxopiperidin-3-yl)isoindoline-1,3-dione], the cell viability was found to be 0.56±0.04.
